In patent US3949090A, “Methods and compositions for improving feed efficiency in ruminants using dithiooxamide” (SmithKline Corporation, priority 1974, dated 1976):
Where two headings read alike, the source gives them in different places.

What was measured:
[1] = system: Microbial Deaminase (strained rumen fluid); assay: In vitro effects upon amino acid deamination (rumen fluid, starch, urea; 5 hours); type: cell-based
Method: The in vitro fermentation system contained 50 ml. strained rumen fluid, 8 mM urea, 1 g. starch, 1.8 mM of each of 10 essential amino acids (threonine, valine, methionine, isoleucine, leucine, phenylalanine, tryptophan, lysine and arginine) and 0 to 100 ppm dithiooxamide. Flasks were incubated under a CO2 atmosphere for 5 hours with total amino acids assayed prior to and at the end of the fermentation by the method of Borchers [Anal. Chem., 31, (7):1179]. Percent apparent inhibition of deamination in treated flasks was calculated relative to control flasks without added dithiooxamide. Apparent inhibition of deamination in excess of 100% may be observed because of the liberation of amino acids from proteinaceous materials contained in rumen fluid.
Inhibition of deamination (%) =
Control deamination (%) - Treated deamination (%)
Control deamination (%)
^1 In vitro fermentation system contained 50 ml. strained rumen fluid
1 g. starch, 8 mM urea and 1.8 mM of each of ten essential amino acids.
Flasks were incubated under a CO2 atmosphere for five hours.

[2] = system: Microbial Deaminase (strained rumen fluid); assay: In vitro microbial deaminase inhibition (rumen fluid, alfalfa hay, grain mixture; 4 hours); type: cell-based; conditions: for MDI (%): 240 min
Method: (§1) The in vitro fermentation system contained 75 ml. strained rumen fluid, 200 mg, alfalfa hay, 800 mg. of a crude protein grain mixture, 0.8 to 1.6 mM of each of 10 essential amino acids (threonine, valine, methionine, isoleucine, leucine, phelylalanine, tryptophan, lysine and arginine), and 0 to 50 ppm dithiooxamide. Flasks were incubated for 4 hours with effects upon amino acid deamination assessed as described for the previous system. Using standard chromatographic techniques, effects upon methanogenesis and upon the pattern of volatile fatty acid production were determined.
(§2) ^1 In vitro fermentation system contained 75 ml. strained rumen fluid
(§3) 200 mg. alfalfa hay, 800 mg. grain mixture (16% crude protein) and 1.6 mM
(§4) of each of ten essential amino acids. Flasks were incubated for four
(§5) 200 mg. alfalfa hay, 800 mg. grain mixture (16% crude protein) and 0.8 mM

[3] = system: methanogenesis (strained rumen fluid); assay: In vitro effects upon methanogenesis; type: cell-based
Method: as §1, §2, §3, §4, §5

[4] = system: volatile fatty acid production (strained rumen fluid); assay: In vitro volatile fatty acid production; type: cell-based
Method: as §1, §2, §3, §4, §5

[5] = system: gas production (strained rumen fluid); assay: In vitro gas production; type: cell-based; conditions: Table III, control 65
Method: as §1, §2, §5, §4

[6] = system: rumen microbial deamination; assay: In vivo effects upon amino acid deamination in rumen fistulated cattle; conditions: for Quantity of amino acids in the rumen: per rumen
Method: Rumen fistulated cattle were fed a pelleted 60% concentrate diet. To conduct the test, animals received ruminal doses of a mixture of free amino acids to provide 338 mMoles of total free amino acids (threonine 4.5 g., methionine 6.0 g., isoleucine 5.0 g., leucine 5.0 g., phenylalanine 6.5 g., lysine 7.5 g., histidine 8.5 g.), 50 g. of a soluble rumen marker, polyethylene glycol (PEG) and 0 to 4 g. dithiooxamide. Total amino acid concentration was determined by the procedure of Borchers [Anal. Chem., 31 (7): 1179]. Activity was assessed as changes, with respect to time, of the quantity of total free amino acids in the rumen. Inhibition of rumen microbial deamination results in a greater quantity of free amino acids in the rumen.
^1 Polyethylene glycol was used as a marker to estimate rumen volume
and correct for changes in amino acid concentration due to changes in
rumen volume during the six hour experiment.
^2 mMoles of amino acid per rumen.

methanogenesis = assay: In vivo effects upon methanogenesis in cattle; conditions: for Methane Inhibition: 360 kg cattle, at least 7 days
Text: Cattle were fed 5 to 7 kg./day of a 70% concentrate ration which was medicated to supply 0 to 2 g. of dithiooxamide per animal daily. After feeding medicated rations for at least 7 days, gas samples were obtained by rumen puncture for chromatographic assay of methane.
^1 360 Kg. Cattle fed either 5, 6 or 7 kg./day.

[7] = Table III, varying concentrations of cobalt and copper

NC(=S)C(N)=S [Dithiooxamide, dithiooxamide]
inhibition at 2.5 ppm ([1]; 2.5 ppm dithiooxamide, 5 h, 1 replication, read-out: MDI (%)): 0% | inhibition at 5 ppm ([1]; 5 ppm dithiooxamide, 5 h, 4 replications, read-out: MDI (%)): 35% | inhibition at 7.5 ppm ([1]; 7.5 ppm dithiooxamide, 5 h, 1 replication, read-out: MDI (%)): 71% | inhibition at 10 ppm ([1]; 10 ppm dithiooxamide, 5 h, 4 replications, read-out: MDI (%)): 57% | inhibition at 25 ppm ([1]; 25 ppm dithiooxamide, 5 h, 4 replications, read-out: MDI (%)): 62% | inhibition at 50 ppm ([1]; 50 ppm dithiooxamide, 5 h, 2 replications, read-out: MDI (%)): 84% | inhibition at 75 ppm ([1]; 75 ppm dithiooxamide, 5 h, 1 replication, read-out: MDI (%)): 100% | inhibition at 100 ppm ([1]; 100 ppm dithiooxamide, 5 h, 1 replication, read-out: MDI (%)): 117% | inhibition of microbial deamination of amino acids (in words) ([1]; Table I, 7.5 to 100 ppm): effective inhibitor of microbial deamination of amino acids over a wide concentration range | inhibition at 5 ppm ([2]; 4 h, Table II, 5 ppm dithiooxamide, 4 h, read-out: MDI (%)): 6% | inhibition at 10 ppm ([2]; 4 h, Table II, 10 ppm dithiooxamide, 4 h, read-out: MDI (%)): 68% | inhibition at 25 ppm ([2]; 4 h, Table II, 25 ppm dithiooxamide, 4 h, read-out: MDI (%)): 65% | inhibition at 50 ppm ([2]; 4 h, Table II, 50 ppm dithiooxamide, 4 h, read-out: MDI (%)): 94% | inhibition at 25 ppm ([2]; 4 h, Table III, dithiooxamide 25 ppm, no added cobalt or copper, read-out: MDI (%)): 78% | inhibition of microbial deamination of amino acids (in words) ([2]; Table II): effective inhibitor of microbial deamination of amino acids | MDI (%) ([2]; Table III, dithiooxamide 25 ppm + cobalt sulfate .013 ppm): 81% | MDI (%) ([2]; Table III, dithiooxamide 25 ppm + copper sulfate .333 ppm): 90% | Deaminase inhibition on adding cobalt and copper (in words) [2, 7]: not affected by adding varying concentrations of cobalt and copper | methane production (in words) ([3]; Table II): would suppress methane production | inhibition at 5 ppm ([3]; Table II, 5 ppm dithiooxamide, 4 h, read-out: Methane Inhibition (%)): 12% | inhibition at 10 ppm ([3]; Table II, 10 ppm dithiooxamide, 4 h, read-out: Methane Inhibition (%)): 88% | inhibition at 25 ppm ([3]; Table II, 25 ppm dithiooxamide, 4 h, read-out: Methane Inhibition (%)): 96% | inhibition at 50 ppm ([3]; Table II, 50 ppm dithiooxamide, 4 h, read-out: Methane Inhibition (%)): 99% | Methane Inhibition (%) ([3]; Table III, dithiooxamide 25 ppm + cobalt sulfate .066 ppm): 93% | inhibition at 25 ppm ([3]; Table III, dithiooxamide 25 ppm, no added cobalt or copper, read-out: Methane Inhibition (%)): 92% | methane inhibition on adding cobalt and copper (in words) [3, 7]: not affected by adding varying concentrations of cobalt and copper | pattern of volatile fatty acids (in words) ([4]; Table II): increased molar percentages of propionate and butyrate at the expense of acetate | volatile fatty acid carbon (in words) ([4]; Table II): slight decrease in volatile fatty acid carbon | Volatile Fatty Acids (molar distribution, %): Propionate ([4]; Table II, 5 ppm dithiooxamide, 4 h, control 9): 10% | Volatile Fatty Acids (molar distribution, %): Butyrate ([4]; Table II, 5 ppm dithiooxamide, 4 h, control 22): 24% | Volatile Fatty Acids (molar distribution, %): Acetate ([4]; Table II, 5 ppm dithiooxamide, 4 h, control 69): 66% | Volatile Fatty Acid Carbon ([4]; Table II, 5 ppm dithiooxamide, 4 h, control 128): 127 μ moles/ml. | Volatile Fatty Acids (molar distribution, %): Propionate ([4]; Table II, 10 ppm dithiooxamide, 4 h, control 9): 15% | Volatile Fatty Acids (molar distribution, %): Butyrate ([4]; Table II, 10 ppm dithiooxamide, 4 h, control 22): 36% | Volatile Fatty Acids (molar distribution, %): Acetate ([4]; Table II, 10 ppm dithiooxamide, 4 h, control 69): 49% | Volatile Fatty Acid Carbon ([4]; Table II, 10 ppm dithiooxamide, 4 h, control 128): 108 μ moles/ml. | Volatile Fatty Acids (molar distribution, %): Propionate ([4]; Table II, 25 ppm dithiooxamide, 4 h, control 9): 15% | Volatile Fatty Acids (molar distribution, %): Butyrate ([4]; Table II, 25 ppm dithiooxamide, 4 h, control 22): 36% | Volatile Fatty Acids (molar distribution, %): Acetate ([4]; Table II, 25 ppm dithiooxamide, 4 h, control 69): 49% | Volatile Fatty Acid Carbon ([4]; Table II, 25 ppm dithiooxamide, 4 h, control 128): 108 μ moles/ml. | Volatile Fatty Acids (molar distribution, %): Propionate ([4]; Table II, 50 ppm dithiooxamide, 4 h, control 9): 15% | Volatile Fatty Acids (molar distribution, %): Butyrate ([4]; Table II, 50 ppm dithiooxamide, 4 h, control 22): 38% | Volatile Fatty Acids (molar distribution, %): Acetate ([4]; Table II, 50 ppm dithiooxamide, 4 h, control 69): 47% | Volatile Fatty Acid Carbon ([4]; Table II, 50 ppm dithiooxamide, 4 h, control 128): 102 μ moles/ml. | patterns of volatile fatty acid production (in words) ([4]; Table III): Alterations in patterns of volatile fatty acid production were again observed | total volatile fatty acid carbon production (in words) ([4]; Table III): no effects on total volatile fatty acid carbon production | Volatile Fatty Acids (molar distribution, %): Propionate ([4]; Table III, dithiooxamide 25 ppm + cobalt sulfate .013 ppm, control 15): 20% | Volatile Fatty Acids (molar distribution, %): Butyrate ([4]; Table III, dithiooxamide 25 ppm + cobalt sulfate .013 ppm, control 21): 39% | Volatile Fatty Acids (molar distribution, %): Acetate ([4]; Table III, dithiooxamide 25 ppm + cobalt sulfate .013 ppm, control 64): 41% | Volatile Fatty Acid Carbon ([4]; Table III, dithiooxamide 25 ppm + cobalt sulfate .013 ppm, control 125): 127 μ moles/ml. | Volatile Fatty Acids (molar distribution, %): Propionate ([4]; Table III, dithiooxamide 25 ppm + cobalt sulfate .066 ppm, control 15): 20% | Volatile Fatty Acids (molar distribution, %): Butyrate ([4]; Table III, dithiooxamide 25 ppm + cobalt sulfate .066 ppm, control 21): 37% | Volatile Fatty Acids (molar distribution, %): Acetate ([4]; Table III, dithiooxamide 25 ppm + cobalt sulfate .066 ppm, control 64): 43% | Volatile Fatty Acid Carbon ([4]; Table III, dithiooxamide 25 ppm + cobalt sulfate .066 ppm, control 125): 133 μ moles/ml. | Volatile Fatty Acids (molar distribution, %): Propionate ([4]; Table III, dithiooxamide 25 ppm + copper sulfate .067 ppm, control 15): 21% | Volatile Fatty Acids (molar distribution, %): Butyrate ([4]; Table III, dithiooxamide 25 ppm + copper sulfate .067 ppm, control 21): 41% | Volatile Fatty Acids (molar distribution, %): Acetate ([4]; Table III, dithiooxamide 25 ppm + copper sulfate .067 ppm, control 64): 38% | Volatile Fatty Acid Carbon ([4]; Table III, dithiooxamide 25 ppm + copper sulfate .067 ppm, control 125): 114 μ moles/ml. | Volatile Fatty Acids (molar distribution, %): Propionate ([4]; Table III, dithiooxamide 25 ppm + copper sulfate .333 ppm, control 15): 21% | Volatile Fatty Acids (molar distribution, %): Butyrate ([4]; Table III, dithiooxamide 25 ppm + copper sulfate .333 ppm, control 21): 38% | Volatile Fatty Acids (molar distribution, %): Acetate ([4]; Table III, dithiooxamide 25 ppm + copper sulfate .333 ppm, control 64): 41% | Volatile Fatty Acid Carbon ([4]; Table III, dithiooxamide 25 ppm + copper sulfate .333 ppm, control 125): 132 μ moles/ml. | Volatile Fatty Acids (molar distribution, %): Propionate ([4]; Table III, dithiooxamide 25 ppm, no added cobalt or copper, control 15): 21% | Volatile Fatty Acids (molar distribution, %): Butyrate ([4]; Table III, dithiooxamide 25 ppm, no added cobalt or copper, control 21): 40% | Volatile Fatty Acids (molar distribution, %): Acetate ([4]; Table III, dithiooxamide 25 ppm, no added cobalt or copper, control 64): 39% | Volatile Fatty Acid Carbon ([4]; Table III, dithiooxamide 25 ppm, no added cobalt or copper, control 125): 119 μ moles/ml. | Gas Production ([5]; dithiooxamide 25 ppm + cobalt sulfate .013 ppm): 82 cc | Gas Production ([5]; dithiooxamide 25 ppm + cobalt sulfate .066 ppm): 86 cc | Gas Production ([5]; dithiooxamide 25 ppm + copper sulfate .067 ppm): 85 cc | Gas Production ([5]; dithiooxamide 25 ppm + copper sulfate .333 ppm): 83 cc | Gas Production ([5]; dithiooxamide 25 ppm, no added cobalt or copper): 85 cc | Quantity of amino acids in the rumen ([6]; 0.5 g dithiooxamide ruminal dose, 0 h after dosing, control 338): 338 mmol | Quantity of amino acids in the rumen ([6]; 0.5 g dithiooxamide ruminal dose, 3 h after dosing, control 152): 192 mmol | Quantity of amino acids in the rumen ([6]; 0.5 g dithiooxamide ruminal dose, 6 h after dosing, control 47): 78 mmol | Quantity of amino acids in the rumen ([6]; 1.0 g dithiooxamide ruminal dose, 0 h after dosing, control 338): 338 mmol | Quantity of amino acids in the rumen ([6]; 1.0 g dithiooxamide ruminal dose, 3 h after dosing, control 152): 198 mmol | Quantity of amino acids in the rumen ([6]; 1.0 g dithiooxamide ruminal dose, 6 h after dosing, control 47): 162 mmol | Quantity of amino acids in the rumen ([6]; 2.0 g dithiooxamide ruminal dose, 0 h after dosing, control 338): 338 mmol | Quantity of amino acids in the rumen ([6]; 2.0 g dithiooxamide ruminal dose, 3 h after dosing, control 152): 209 mmol | Quantity of amino acids in the rumen ([6]; 2.0 g dithiooxamide ruminal dose, 6 h after dosing, control 47): 218 mmol | Quantity of amino acids in the rumen ([6]; 4.0 g dithiooxamide ruminal dose, 0 h after dosing, control 338): 338 mmol | Quantity of amino acids in the rumen ([6]; 4.0 g dithiooxamide ruminal dose, 3 h after dosing, control 152): 270 mmol | Quantity of amino acids in the rumen ([6]; 4.0 g dithiooxamide ruminal dose, 6 h after dosing, control 47): 308 mmol | prevention of degradation of free amino acids in the rumen (in words) ([6]; Table IV): effective agent in preventing his degradation and increasing the size of the pool of amino acids in the rumen | Methane Inhibition (methanogenesis; 1.0 g./day dithiooxamide in feed): 51 | Methane Inhibition (methanogenesis; 2.0 g./day dithiooxamide in feed): 85 | Methane Inhibition (methanogenesis; .5 g./day dithiooxamide in feed): 25 | antimethanogenic activity (in words) (methanogenesis; Table V): verified the antimethanogenic activity
